Laboratory results reported in ChEMBL document CHEMBL1135598, “In silico and NMR identification of inhibitors of the IGF-I and IGF-binding protein-5 interaction” (J Med Chem, 2002).

Columns and labels:
[1] = biological target: T1, Insulin-like growth factor-binding protein 5 (Homo sapiens, UniProt P24593); assay: Dissociation constant binding to Insulin-like growth factor binding protein 5 at the residue L-81
[2] = biological target: T1, Insulin-like growth factor-binding protein 5; assay: Dissociation constant in PBS binding to Insulin-like growth factor binding protein 5 at the residue Y86
[3] = biological target: T1, Insulin-like growth factor-binding protein 5; assay: Dissociation constant in DMSO binding to Insulin-like growth factor binding protein 5 at the residue Y50
[4] = biological target: T1, Insulin-like growth factor-binding protein 5; assay: Dissociation constant in DMSO binding to Insulin-like growth factor binding protein 5 at the residue Y86
[5] = biological target: T1, Insulin-like growth factor-binding protein 5; assay: Dissociation constant in PBS binding to Insulin-like growth factor binding protein 5 at the residue K91
[6] = biological target: T1, Insulin-like growth factor-binding protein 5; assay: Dissociation constant in PBS binding to Insulin-like growth factor binding protein 5 at the residue L73
[7] = biological target: T1, Insulin-like growth factor-binding protein 5; assay: Dissociation constant in PBS binding to Insulin-like growth factor binding protein 5 at the residue L81
[8] = biological target: T1, Insulin-like growth factor-binding protein 5; assay: Dissociation constant in PBS binding to Insulin-like growth factor binding protein 5 at the residue R87
[9] = biological target: T1, Insulin-like growth factor-binding protein 5; assay: Dissociation constant in DMSO binding to Insulin-like growth factor binding protein 5 at the residue K91
[10] = biological target: T1, Insulin-like growth factor-binding protein 5; assay: Dissociation constant in DMSO binding to Insulin-like growth factor binding protein 5 at the residue L73
[11] = biological target: T1, Insulin-like growth factor-binding protein 5; assay: Dissociation constant in DMSO binding to Insulin-like growth factor binding protein 5 at the residue L81
[12] = biological target: T1, Insulin-like growth factor-binding protein 5; assay: Dissociation constant in DMSO binding to Insulin-like growth factor binding protein 5 at the residue R87
[13] = biological target: T1, Insulin-like growth factor-binding protein 5; assay: Dissociation constant in DMSO binding to Insulin-like growth factor binding protein 5 at the residue S85
[14] = biological target: T1, Insulin-like growth factor-binding protein 5; assay: Dissociation constant in PBS binding to Insulin-like growth factor binding protein 5 at the residue S85
[15] = biological target: T1, Insulin-like growth factor-binding protein 5; assay: Dissociation constant in PBS binding to Insulin-like growth factor binding protein 5 at the residue Y50
[16] = biological target: T1, Insulin-like growth factor-binding protein 5; assay: Dissociation constant in binding to Insulin-like growth factor binding protein 5 at the residue R87
[17] = biological target: T1, Insulin-like growth factor-binding protein 5; assay: Dissociation constant in binding to Insulin-like growth factor binding protein 5 at the residue S85
[18] = biological target: T1, Insulin-like growth factor-binding protein 5; assay: Dissociation constant in binding to Insulin-like growth factor binding protein 5 at the residue Y50
[19] = biological target: T1, Insulin-like growth factor-binding protein 5; assay: Dissociation constant in binding to Insulin-like growth factor binding protein 5 at the residue Y86
[20] = biological target: T1, Insulin-like growth factor-binding protein 5; assay: Dissociation constant in binding to Insulin-like growth factor binding protein 5 at the residue L73
[21] = biological target: T1, Insulin-like growth factor-binding protein 5; assay: Dissociation constant in binding to Insulin-like growth factor binding protein 5 at the residue L81
[22] = biological target: T1, Insulin-like growth factor-binding protein 5; assay: Dissociation constant in BS binding to Insulin-like growth factor binding protein 5 at the residue K91

T1 sequence (P24593 whole entry): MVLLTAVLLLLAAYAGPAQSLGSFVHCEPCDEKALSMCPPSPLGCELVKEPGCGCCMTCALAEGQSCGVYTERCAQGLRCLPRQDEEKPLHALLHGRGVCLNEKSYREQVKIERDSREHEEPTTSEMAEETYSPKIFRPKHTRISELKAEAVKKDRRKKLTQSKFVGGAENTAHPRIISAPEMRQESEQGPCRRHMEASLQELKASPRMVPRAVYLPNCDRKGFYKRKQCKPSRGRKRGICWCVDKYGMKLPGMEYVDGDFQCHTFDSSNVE

CC(C)(C)Oc1ccc(C[C@@H](NC(=O)OCC2c3ccccc3-c3ccccc32)C(=O)O)cc1
Kd [1]: 718 µM

O=C(N[C@H](Cc1ccc(OP(=O)(O)O)cc1)C(=O)O)OCC1c2ccccc2-c2ccccc21
Kd [2]: 1720 µM
Kd [3]: 1580 µM
Kd [4]: 1900 µM
Kd [5]: 2120 µM
Kd [6]: 2930 µM
Kd [7]: 2880 µM
Kd [8]: 2360 µM
Kd [1]: 2780 µM
Kd [9]: 2420 µM
Kd [10]: 1310 µM
Kd [11]: 2780 µM
Kd [12]: 1640 µM
Kd [13]: 1380 µM
Kd [14]: 2330 µM
Kd [15]: 1820 µM

O=C(N[C@H](Cc1ccccc1)C(=O)O)OCC1c2ccccc2-c2ccccc21
Kd [1]: 1080 µM

C[S+](C)[O-] [DIMETHYL SULFOXIDE]
Kd [16]: 921000 µM
Kd [17]: 650000 µM
Kd [18]: 648000 µM
Kd [19]: 783000 µM
Kd [20]: 541000 µM
Kd [21]: 610000 µM
Kd [22]: 719000 µM
